Reference: ChEMBL document CHEMBL5104126, “Discovery of 2,3-dihydro-1H-pyrrolo[3,4-b]quinolin-1-one derivatives as possible antileishmanial agents” (RSC Med Chem, 2022)
≈ marks a conversion by molar mass, not a printed value. Calls of active or inactive are those of the source. The rule behind the calls is not given here.

Tests used:
J774 [1] = experiment: Cytotoxicity against mouse macrophage J774 cells assessed as reduction in cell viability at 50 to 100 uM incubated for 72 hrs by MTT assay; assay type: toxicity, cell-based; conditions: j774, 72 h, dose 50-100 µM
J774 [2] = experiment: Cytotoxicity against mouse macrophage J774 cells assessed as reduction in cell viability at 6.25 to 25 uM incubated for 72 hrs by MTT assay; assay type: toxicity, cell-based; conditions: j774, 72 h, dose 6.25-25 µM
Leishmania donovani [3] = experiment: Antileishmanial activity against Leishmania donovani MHOM/IN/80/Dd8 promastigotes harboring luciferase gene infected in mouse J774 cells assessed as inhibition of parasite viability at 25 uM incubated for 72 hrs by Steady-Glo reagent based luciferase assay relative to control; assay type: functional; conditions: MHOM/IN/80/Dd8, J774
Leishmania donovani [4] = experiment: Antileishmanial activity against Leishmania donovani MHOM/IN/80/Dd8 amastigotes harboring luciferase gene infected in mouse J774 cells assessed as inhibition of parasite viability at 25 uM incubated for 72 hrs by Steady-Glo reagent based luciferase assay relative to control; assay type: functional; conditions: MHOM/IN/80/Dd8, J774
Leishmania donovani [5] = experiment: Antileishmanial activity against Leishmania donovani MHOM/IN/80/Dd8 amastigotes harboring luciferase gene infected in mouse J774 cells assessed as inhibition of parasite viability incubated for 72 hrs by Steady-Glo reagent based luciferase assay relative to control; assay type: functional, organism-based; conditions: MHOM/IN/80/Dd8, J774, 72 h
Leishmania donovani [6] = experiment: Antileishmanial activity against Leishmania donovani MHOM/IN/80/Dd8 promastigotes harboring luciferase gene infected in mouse J774 cells assessed as inhibition of parasite viability at 50 uM incubated for 72 hrs by Steady-Glo reagent based luciferase assay relative to control; assay type: functional; conditions: MHOM/IN/80/Dd8, J774
Leishmania donovani [7] = experiment: Antileishmanial activity against Leishmania donovani MHOM/IN/80/Dd8 promastigotes harboring luciferase gene infected in mouse J774 cells assessed as inhibition of parasite viability incubated for 72 hrs by Steady-Glo reagent based luciferase assay relative to control; assay type: functional, organism-based; conditions: MHOM/IN/80/Dd8, J774, 72 h
[8] = Cytotoxicity against mouse macrophage J774 cells assessed as inhibition of cell viability incubated for 72 hrs by MTT assay; assay type: toxicity, cell-based
[9] = Cytotoxicity against human HepG2 cells assessed as inhibition of cell viability incubated for 72 hrs by MTT assay; assay type: toxicity, cell-based
[10] = Selectivity index, ratio of CC50 for cytotoxicity against mouse macrophage J774 cells to IC50 for antileishmanial activity against Leishmania donovani MHOM/IN/80/Dd8 amastigotes harboring luciferase gene infected in mouse J774 cells; assay type: toxicity, cell-based; conditions: read-out: Ratio CC50/IC50
[11] = Selectivity index, ratio of CC50 for cytotoxicity against human HepG2 cells to IC50 for antileishmanial activity against Leishmania donovani MHOM/IN/80/Dd8 amastigotes harboring luciferase gene infected in mouse J774 cells; assay type: toxicity, cell-based; conditions: read-out: Ratio CC50/IC50
[12] = Stability of compound in SGF assessed as parent compound remaining at 10 ug/ml incubated for 2 hrs by UPLC analysis; assay type: ADME; conditions: at 10 µg/mL, read-out: Stability
[13] = Stability of compound in SIF assessed as parent compound remaining at 10 ug/ml incubated for 2 hrs by UPLC analysis; assay type: ADME; conditions: at 10 µg/mL, read-out: Stability
[14] = Stability of compound in mouse plasma assessed as parent compound remaining at 10 ug/ml incubated for 2 hrs by UPLC analysis; assay type: ADME, cell-free; conditions: at 10 µg/mL, read-out: Stability
[15] = Metabolic stability in mouse liver microsomes assessed as parent compound remaining at 10 ug/ml incubated for 1 hrs in presence of NADPH by UPLC analysis; assay type: ADME, Microsome; conditions: at 10 µg/mL, read-out: Stability
[16] = Metabolic stability in mouse liver microsomes assessed as elimination rate constant at 10 ug/ml incubated for 1 hrs in presence of NADPH by UPLC analysis; assay type: ADME, Microsome; conditions: dose 10 µg/ml
[17] = Metabolic stability in mouse liver microsomes assessed as half life at 10 ug/ml incubated for 1 hrs in presence of NADPH by UPLC analysis; assay type: ADME, Microsome; conditions: dose 10 µg/ml
[18] = Metabolic stability in mouse liver microsomes assessed as intrinsic clearance at 10 ug/ml measured per mg protein incubated for 1 hrs in presence of NADPH by UPLC analysis; assay type: ADME, Microsome; conditions: dose 10 µg/ml, read-out: CLH
[19] = Aqueous solubility of the compound incubated for 24 hrs by shake flask method; assay type: physicochemical; conditions: water
[20] = Octanol/water partition coefficient, logP of the compound incubated for 24 hrs by shake flask method; assay type: physicochemical
Leishmania donovani [21] = experiment: Antileishmanial activity against Leishmania donovani MHOM/IN/80/Dd8 promastigotes infected in Balb/c mouse assessed as inhibition organ parasite burden in liver at 6.25 mg/kg, ip for 7 days by Giemsa staining based microscopy; assay type: functional; conditions: MHOM/IN/80/Dd8, 168 h, time 7 day
Leishmania donovani [22] = experiment: Antileishmanial activity against Leishmania donovani MHOM/IN/80/Dd8 promastigotes infected in Balb/c mouse assessed as inhibition organ parasite burden in spleen at 6.25 mg/kg, ip for 7 days by Giemsa staining based microscopy; assay type: functional; conditions: MHOM/IN/80/Dd8, 168 h, time 7 day
Leishmania donovani [23] = experiment: Antileishmanial activity against Leishmania donovani MHOM/IN/80/Dd8 promastigotes infected in Balb/c mouse assessed as inhibition organ parasite burden in liver at 12.5 mg/kg, ip for 7 days by Giemsa staining based microscopy; assay type: functional; conditions: MHOM/IN/80/Dd8, 168 h, time 7 day
Leishmania donovani [24] = experiment: Antileishmanial activity against Leishmania donovani MHOM/IN/80/Dd8 promastigotes infected in Balb/c mouse assessed as inhibition organ parasite burden in spleen at 12.5 mg/kg, ip for 7 days by Giemsa staining based microscopy; assay type: functional; conditions: MHOM/IN/80/Dd8, 168 h, time 7 day
Leishmania donovani [25] = experiment: Antileishmanial activity against Leishmania donovani MHOM/IN/80/Dd8 promastigotes infected in Balb/c mouse assessed as inhibition organ parasite burden in liver at 50 mg/kg, ip for 7 days by Giemsa staining based microscopy; assay type: functional; conditions: MHOM/IN/80/Dd8, 168 h, time 7 day
Leishmania donovani [26] = experiment: Antileishmanial activity against Leishmania donovani MHOM/IN/80/Dd8 promastigotes infected in Balb/c mouse assessed as inhibition organ parasite burden in spleen at 50 mg/kg, ip for 7 days by Giemsa staining based microscopy; assay type: functional; conditions: MHOM/IN/80/Dd8, 168 h, time 7 day
Leishmania donovani [27] = experiment: Induction of mitochondrial membrane potential loss in Leishmania donovani MHOM/IN/80/Dd8 promastigotes assessed as apoptotic cells at 50 uM incubated for 24 hrs by JC-1 dye staining based flow cytometry; assay type: functional
Leishmania donovani [28] = experiment: Induction of mitochondrial membrane potential loss in Leishmania donovani MHOM/IN/80/Dd8 promastigotes assessed as apoptotic cells at 50 uM incubated for 48 hrs by JC-1 dye staining based flow cytometry; assay type: functional
Leishmania donovani [29] = experiment: Induction of apoptosis in Leishmania donovani MHOM/IN/80/Dd8 promastigotes assessed as increase in cytochrome c level in cytosol at 50 uM incubated upto 48 hrs by immunoblot analysis; assay type: functional, organism-based; conditions: TDE = time-dependent effect
Leishmania donovani [30] = experiment: Induction of apoptosis in Leishmania donovani MHOM/IN/80/Dd8 promastigotes assessed as decrease in cytochrome c level in mitochondria at 50 uM incubated upto 48 hrs by immunoblot analysis; assay type: functional, organism-based; conditions: TDE = time-dependent effect
Leishmania donovani [31] = experiment: Induction of apoptosis in Leishmania donovani MHOM/IN/80/Dd8 promastigotes assessed as ladder like DNA at 50 uM incubated for 72 hrs by agarose gel electrophoresis; assay type: functional, organism-based
Leishmania donovani [32] = experiment: Induction of apoptosis in Leishmania donovani MHOM/IN/80/Dd8 promastigotes assessed as breakdown of nuclear DNA at 50 uM incubated for 72 hrs by agarose gel electrophoresis; assay type: functional, organism-based
Leishmania donovani [33] = experiment: Induction of cell cycle arrest in Leishmania donovani MHOM/IN/80/Dd8 promastigotes assessed as increase in subG0/G1 phase at 50 uM incubated for 72 hrs by PI staining based flow cytometry; assay type: functional

**Q.** Which results are given for `COc1ccc(-c2c3c(nc4ccc(OC)cc24)CN(C(C)(C)C(=O)NC(C)(C)C)C3=O)cc1`?
**A.** Activity (J774 [1]): >= 30%; Activity (J774 [2]): Non-Toxic; inhibition at 25 µM (Leishmania donovani [3]): 85.4%; inhibition at 25 µM (Leishmania donovani [4]): 85.5%; IC50 (Leishmania donovani [5]): 7.36 µM; inhibition at 50 µM (Leishmania donovani [6]): 86.5%; IC50 (Leishmania donovani [7]): 8.36 µM; CC50 at 72 h [8]: 65.1 µM; CC50 at 72 h [9]: 63.7 µM; selectivity ratio [10]: 7.79; selectivity ratio [11]: 7.62; remaining at 2 h, 10 ug/ml [12]: 87.5%; remaining at 2 h, 10 ug/ml [13]: 85.5%; remaining at 2 h, 10 ug/ml [14]: 88.7%; remaining at 1 h, 10 ug/ml [15]: 86.8%; k el at 1 h, 10 ug/ml [16]: 3.89e-05 s⁻¹; half-life at 10 ug/ml [17]: 5.07 h; microsomal CLint at 10 ug/ml [18]: 4.61 µL/min/mg; solubility thermodynamic at 24 h [19]: 157 µg/mL (≈ 340 µM); logP at 24 h [20]: 2.7; inhibition in vivo at 6.25 mg/kg (Leishmania donovani [21]): 45.1%; inhibition in vivo at 6.25 mg/kg (Leishmania donovani [22]): 42.4%; inhibition in vivo at 12.5 mg/kg (Leishmania donovani [23]): 56.2%; inhibition in vivo at 12.5 mg/kg (Leishmania donovani [24]): 61.1%; inhibition in vivo at 50 mg/kg (Leishmania donovani [25]): 57.8%; inhibition in vivo at 50 mg/kg (Leishmania donovani [26]): 63.4%; Activity (Leishmania donovani [27]): 36%; Activity (Leishmania donovani [28]): 69.1%; Activity (Leishmania donovani [29]): Tde; Activity (Leishmania donovani [30]): Tde; Activity (Leishmania donovani [31]): Active; Activity (Leishmania donovani [32]): Active; Activity (Leishmania donovani [33]): 58.4%
